Data on eleven compounds can be found in ChEMBL document CHEMBL1201862, “PubChem BioAssay data set” (2004).

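Results reflect a 48-hour exposure of cells in 96-well plates to compound at five concentrations. Abbreviation: GI50, concentration required for 50% inhibition of growth.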 Active and inactive are the calls of the source. Rule as the data show it: active = GI50 up to about 1.1 µM and inactive = higher.

Holding throughout (test): inhibition of tumour cell growth, NCI panel, 48 h
For assay [1], the system named is SNB-19.
Assay [2] deals with SK-MEL-28.
For assay [3], the system named is HCT-15.
In assay [4] the test system is HOP-92.
For assay [5], the system named is HCT-116.
Assay [6] has as its system KM12.
In assay [7] the test system is TK-10.
Assay [8] has as its system CAKI-1.
The subject of assay [9] is OVCAR-8.
In assay [10] the test system is OVCAR-4.
The test system of assay [11] is LOX IMVI.
Assay [12] concerns IGROV-1.
The subject of assay [13] is NCI/ADR-RES.
Assay [14] deals with SF-268.
Assay [15] has as its system SNB-75.
Assay [16] concerns SF-295.
The test system of assay [17] is RPMI-8226.
For assay [18], the system named is CCRF-CEM.
Assay [19] deals with HL-60.
The test system of assay [20] is RXF 393.

Turning to `c1ccc2c(c1)[nH]c1c2cc[n+]2cc3c(cc12)CCCC3`, the GI50 in assay [1] is 3 µM (inactive); in assay [2], 1.47 µM (inactive); in [3], 10.5 µM; in assay [4], 3.25 µM (inactive); in assay [5], 1.59 µM (inactive); in assay [6], 1.7 µM (inactive). Further, the GI50 was 6.68 µM (inactive) in assay [7]; 17.2 µM (inactive) in assay [8]; 2.42 µM (inactive) in assay [9]; 1.72 µM (inactive) in [10]; 2.39 µM (inactive) in assay [11]; 7.18 µM (inactive) in assay [12]. Besides, the GI50 in [13] is 44.6 µM (inactive); in assay [14] it was 2.93 µM (inactive); in [15], 5.96 µM (inactive); in assay [16] it was 3.18 µM (inactive); in [17] it was 1.53 µM (inactive).
In the case of `COc1ccc2c(c1)CC[C@@H]1[C@@H]2CC[C@]2(C)C(=O)/C(=C/c3ccc(O)c(OC)c3)C[C@@H]12`, the GI50 in [1] is > 100 µM (inactive); in assay [2] it was 52.1 µM (inactive); in [3], 28.3 µM; in assay [4] it was > 100 µM (inactive); in [7], 43.1 µM (inactive); in [8] it was 67.8 µM (inactive). The GI50 in assay [18] was 66.2 µM (inactive); in assay [9], 91.8 µM (inactive); in [10] it was 55.8 µM (inactive); in assay [11], 36.9 µM (inactive); in assay [12], 63.8 µM (inactive); in assay [13], 44.2 µM (inactive). In addition, the GI50 in assay [16] was 55.6 µM (inactive); in [17], 34.7 µM (inactive); in [19] it was 47.8 µM (inactive); in assay [20] it was 41.5 µM (inactive).
Turning to `O=C1O[C@H](c2ccc3c(c2)OCO3)[C@H]2CO[C@@H](c3ccc4c(c3)OCO4)[C@@H]12`, the GI50 in assay [1] was > 100 µM (inactive); in assay [2], > 100 µM (inactive); in [3], greater than 100 µM; in assay [4] it was > 100 µM (inactive); in [5], > 100 µM (inactive); in [6], > 100 µM (inactive). Moreover, the GI50 in assay [7] is > 100 µM (inactive); in [8] it was 77.8 µM (inactive); in [9], > 100 µM (inactive); in assay [10] it was 96.2 µM (inactive); in assay [11], > 100 µM (inactive); in assay [12], > 100 µM (inactive). Moreover, the GI50 in assay [13] is 74.1 µM (inactive); in assay [14], > 100 µM (inactive); in [16] it was 60.1 µM (inactive); in [17], 33.9 µM (inactive); in assay [19], > 100 µM (inactive); in [20] it was > 100 µM (inactive).
On to `CC(CC[C@@]1(C)C(=O)CCC2O[C@]21C)[C@H]1C[C@@H](c2ccoc2)OC1=O` (stereo partly drawn), for which the GI50 was > 100 µM (inactive) in assay [1]; 23.6 µM (inactive) in assay [2]; 35.7 µM in [3]; 28.4 µM (inactive) in assay [4]; 19.5 µM (inactive) in [5]; > 100 µM (inactive) in [6]. In addition, the GI50 in [7] was 35.8 µM (inactive); in assay [8], 26.5 µM (inactive); in assay [18] it was 19.6 µM (inactive); in assay [10], 20.6 µM (inactive); in assay [11], 19.8 µM (inactive); in assay [12], 67.3 µM (inactive). Moreover, the GI50 in assay [13] is 45.6 µM (inactive); in [14], 31 µM (inactive); in [16] it was > 100 µM (inactive); in assay [17], 35.5 µM (inactive); in [19], 23.7 µM (inactive); in [20] it was 17.2 µM (inactive).
As for `COC(=O)C1=C(C(=O)OC)SC2(S1)C1=C(CCC1)SC(C(=O)OC)=C2C(=O)OC`, the GI50 was 19.6 µM (inactive) in [1]; 10.7 µM (inactive) in assay [2]; 6.08 µM in assay [3]; 10.2 µM (inactive) in assay [4]; 1.77 µM (inactive) in assay [5]; 15.1 µM (inactive) in [6]. Further, the GI50 was 14.9 µM (inactive) in assay [7]; 5.87 µM (inactive) in assay [8]; 2.17 µM (inactive) in assay [18]; 10.2 µM (inactive) in assay [9]; 15.1 µM (inactive) in [10]; 3.33 µM (inactive) in [11]. For the same compound, the GI50 in assay [12] is 12.9 µM (inactive); in assay [13], 18.8 µM (inactive); in assay [14] it was 15.5 µM (inactive); in assay [16], 15.6 µM (inactive); in assay [17], 1.86 µM (inactive); in assay [19], 6.76 µM (inactive). The GI50 in assay [20] is 4.62 µM (inactive).
With `O=C(Nc1ccccc1)N1CC(CN2CCN(c3ccccc3)CC2)OC1=O` (stereo not drawn), the GI50 in [1] is > 100 µM (inactive); in assay [2] it was > 100 µM (inactive); in assay [3], greater than 100 µM; in [4], > 100 µM (inactive); in [5], > 100 µM (inactive); in assay [6] it was > 100 µM (inactive). In addition, the GI50 was > 100 µM (inactive) in assay [7]; > 100 µM (inactive) in assay [8]; > 100 µM (inactive) in [18]; > 100 µM (inactive) in [10]; > 100 µM (inactive) in [11]; 46.3 µM (inactive) in assay [12]. In addition, the GI50 in assay [13], in [14], in assay [16], in assay [17], in assay [19] and in [20] was > 100 µM (inactive) each time.
Turning to `CSc1nncc2[nH]c(C)nc12`, the GI50 in [2] is > 100 µM (inactive); in [3] it was greater than 100 µM; in [5], > 100 µM (inactive); in [6], > 100 µM (inactive); in [7] it was > 100 µM (inactive); in assay [8], > 100 µM (inactive). For the same compound, the GI50 in assay [18], in [9], in assay [10], in assay [11], in [12] and in assay [13] was > 100 µM (inactive) each time. The GI50 in assay [15], in assay [16], in assay [17] and in assay [19] was > 100 µM (inactive) each time.
`COC1OC(C(C)O)C2OC(C)(C)OC12` (stereo not drawn): the GI50 in assay [1] is > 100 µM (inactive); in assay [2], > 100 µM (inactive); in assay [3] it was greater than 100 µM; in assay [5], > 100 µM (inactive); in [6] it was > 100 µM (inactive); in assay [7] it was > 100 µM (inactive). For the same compound, the GI50 in assay [8], in [18], in [9], in assay [10], in [11] and in [12] was > 100 µM (inactive) each time. The GI50 in assay [13], in [14], in assay [15], in assay [16], in assay [17] and in assay [19] was > 100 µM (inactive) each time.
Turning to `N=C1NC(c2ccc(Cl)cc2)=CC(c2cccc(Cl)c2)S1` (stereo not drawn), the GI50 was 16.8 µM (inactive) in assay [1]; 13.1 µM in [3]; 16.9 µM (inactive) in assay [4]; 26.4 µM (inactive) in assay [5]; 27 µM (inactive) in [6]; 22.4 µM (inactive) in assay [7]. The GI50 was 24.1 µM (inactive) in assay [8]; 22.4 µM (inactive) in assay [18]; 38.6 µM (inactive) in assay [9]; 20.3 µM (inactive) in [10]; 33.7 µM (inactive) in assay [11]; 30.9 µM (inactive) in [12]. Moreover, the GI50 in assay [13] was 45.4 µM (inactive); in [14], 41.8 µM (inactive); in [16], 33.8 µM (inactive); in assay [17] it was 17.3 µM (inactive); in [19] it was 38 µM (inactive); in [20], 23.8 µM (inactive).
`O=C1C[C@@]23CCC4(CC2CCC[C@H]3O1)OCCO4` (stereo partly drawn): the GI50 in assay [1] is > 100 µM (inactive); in [2] it was > 100 µM (inactive); in assay [3] it was greater than 100 µM; in assay [4], > 100 µM (inactive); in [5], > 100 µM (inactive); in assay [6], > 100 µM (inactive). The GI50 in [9], in [10], in assay [11], in [12], in assay [13] and in assay [14] was > 100 µM (inactive) each time. Also, the GI50 in [16], in assay [17], in assay [19] and in [20] was > 100 µM (inactive) each time.
Turning to `CC(=O)c1ccc(NC(=O)/C(=N\NC(N)=O)C(C#N)CC(C)(C)C=O)cc1` (stereo not drawn), the GI50 is > 100 µM (inactive) in [1]; > 100 µM (inactive) in assay [2]; greater than 100 µM in assay [3]; > 100 µM (inactive) in assay [4]; > 100 µM (inactive) in assay [5]; > 100 µM (inactive) in [6]. For the same compound, the GI50 in [7], in [8], in assay [18], in [9], in assay [10] and in assay [11] was > 100 µM (inactive) in each case. The GI50 in [12], in assay [14], in assay [15], in assay [16], in assay [17] and in assay [19] was > 100 µM (inactive) throughout. For the same compound, in [20], the GI50 is > 100 µM (inactive).
